Data reported in DBAASP.
Converted amounts (≈) assume the structure as drawn. Blank lines part the entries; values can stand above or below the molecule they belong to.

What was measured:
Test in all cases: ≥ marks a high value that may be exact or a test limit, other limits are often not marked, values filed in µg/mL are converted to µM
[1] = test system: Escherichia coli ATCC 25922
[2] = test system: Bacillus thuringiensis AB92037
[3] = test system: Staphylococcus aureus P1374
[4] = test system: Staphylococcus epidermidis AB208188
[5] = test system: Staphylococcus aureus AB208193
[6] = test system: Staphylococcus aureus ATCC 6538
[7] = test system: Micrococcus luteus AB93113
[8] = test system: Staphylococcus epidermidis AB208187
[9] = test system: Staphylococcus aureus P1389
[10] = test system: Pseudomonas aeruginosa ATCC 9027
[11] = test system: Bacillus subtilis AB91021
[12] = test system: Escherichia coli AB94012
[13] = test system: Staphylococcus aureus ATCC 25923
[14] = test system: Staphylococcus aureus P1381
[15] = test system: Candida albicans MDM8
[16] = test system: Serratia marcescens ATCC 4112
[17] = test system: Escherichia coli SBS 363
[18] = test system: Enterobacter cloacae beta-12
[19] = test system: Bacillus megaterium ATCC 10778
[20] = test system: Pseudomonas aeruginosa ATCC 27853
[21] = test system: Micrococcus luteus A270
[22] = test system: Candida tropicalis IOC 4560
[23] = test system: Staphylococcus aureus ATCC 43300
[24] = test system: Staphylococcus aureus ATCC 29213
[25] = test system: Salmonella enterica subsp. enterica serovar Typhimurium ATCC 14028
[26] = test system: Bacillus cereus ATCC 11778
[27] = test system: Listeria monocytogenes ATCC BAA-751
[28] = test system: Aureobasidium pullulans
[29] = test system: Corynebacterium glutamicum ATCC 13032
[30] = test system: Candida albicans ATCC 10231
[31] = test system: Staphylococcus aureus ATCC 9144
[32] = test system: Pseudomonas aeruginosa PA14
[33] = test system: Enterobacter cloacae
[34] = test system: Acinetobacter baumannii
[35] = test system: Staphylococcus aureus ATCC 12600
[36] = test system: Escherichia coli BL21
[37] = test system: Staphylococcus aureus MR
[38] = test system: Klebsiella pneumoniae KpC+001825971
[39] = test system: Pseudomonas aeruginosa PAO1
[40] = test system: Escherichia coli KpC+001812446
[41] = test system: Klebsiella pneumoniae ATCC 13883
[42] = test system: Escherichia coli ATCC 11775
[43] = test system: Escherichia coli ESBL 4
[44] = test system: Escherichia coli ATCC 43827
[45] = test system: Escherichia coli ATCC 35218
[46] = test system: Escherichia coli ESBL
[47] = test system: Staphylococcus aureus
[48] = test system: Candida parapsilosis ATCC 22019
[49] = test system: Trichophyton rubrum ATCC 28189
[50] = test system: Escherichia coli
[51] = test system: Candida albicans ATCC 24433

Structure (SMILES): CC[C@H](C)[C@H](NC(=O)[C@H](CCCCN)NC(=O)[C@@H](NC(=O)[C@H](C)NC(=O)[C@H](CC(C)C)NC(=O)[C@H](CCCCN)NC(=O)[C@H](Cc1ccccc1)NC(=O)[C@H](CC(C)C)NC(=O)[C@H](C)NC(=O)CNC(=O)[C@H](Cc1ccccc1)NC(=O)[C@@H](N)Cc1ccccc1)[C@@H](C)O)C(=O)N[C@H](C(=O)N1CCC[C@H]1C(=O)N[C@@H](CO)C(=O)N[C@@H](CC(C)C)C(=O)N[C@@H](Cc1ccccc1)C(=O)N[C@@H](CCCN=C(N)N)C(=O)O)[C@@H](C)CC [FFGALFKLATKIIPSLFR]
MIC [1]: 12.1 µM (≈ 25 µg/mL)
MIC [2]: 1.5 µM (≈ 3.1 µg/mL)
MIC [3]: 3 µM (≈ 6.21 µg/mL)
MIC [4]: 1.5 µM (≈ 3.1 µg/mL)
MIC [5]: 3 µM (≈ 6.21 µg/mL)
MIC [6]: 1.5 µM (≈ 3.1 µg/mL)
MIC [7]: ≥ 48.3 µM
MIC [8]: 1.5 µM (≈ 3.1 µg/mL)
MIC [9]: 1.5 µM (≈ 3.1 µg/mL)
MIC [10]: 12.1 µM (≈ 25 µg/mL)
MIC [11]: 3 µM (≈ 6.21 µg/mL)
MIC [12]: ≥ 48.3 µM
MIC [13]: 3 µM (≈ 6.21 µg/mL)
MIC [14]: 3 µM (≈ 6.21 µg/mL)

Structure (SMILES): CC(C)C[C@H](NC(=O)CN)C(=O)NCC(=O)N[C@@H](C)C(=O)N[C@@H](CC(C)C)C(=O)N[C@@H](Cc1c[nH]c2ccccc12)C(=O)N[C@@H](CC(N)=O)C(=O)N[C@H](C(=O)N[C@@H](C)C(=O)N[C@@H](CCCCN)C(=O)N[C@@H](CO)C(=O)N[C@H](C(=O)N[C@@H](Cc1ccccc1)C(N)=O)C(C)C)C(C)C [GLGALWNVAKSVF]
MIC [15]: 25 µM (≈ 34 µg/mL)
MIC [16]: 0.8 µM (≈ 1.09 µg/mL)
MIC [17]: ≥ 50 µM
MIC [18]: ≥ 50 µM
MIC [19]: 3.1 µM (≈ 4.22 µg/mL)
MIC [20]: > 50 µM
MIC [21]: 0.8 µM (≈ 1.09 µg/mL)
MIC [22]: 25 µM (≈ 34 µg/mL)

Structure (SMILES): CC[C@H](C)[C@H](NC(=O)CNC(=O)[C@H](CCCCN)NC(=O)[C@@H](NC(=O)[C@H](CC(C)C)NC(=O)[C@H](CCCCN)NC(=O)CNC(=O)[C@H](CC(C)C)NC(=O)CNC(=O)[C@H](CO)NC(=O)[C@H](CCCCN)NC(=O)[C@H](Cc1ccccc1)NC(=O)[C@@H](NC(=O)[C@H](CCCN=C(N)N)NC(=O)[C@H](CCCCN)NC(=O)[C@H](CC(C)C)NC(=O)CN)[C@@H](C)CC)C(C)C)C(=O)N[C@@H](CO)C(=O)N[C@@H](C)C(=O)N[C@@H](Cc1cnc[nH]1)C(=O)N[C@H](C(=O)N[C@@H](C)C(=O)N[C@@H](CO)C(=O)O)C(C)C [GLKRIFKSGLGKLVKGISAHVAS]
MIC [1]: 62.5 µM (≈ 148 µg/mL)
MIC [23]: 250 µM (≈ 592 µg/mL)
MIC [10]: 250 µM (≈ 592 µg/mL)
MIC [24]: 250 µM (≈ 592 µg/mL)
MIC [25]: 125 µM (≈ 296 µg/mL)
MIC [26]: ≥ 125 µM
MIC [13]: 62.5 µM (≈ 148 µg/mL)
MIC [27]: ≥ 62.5 µM

Structure (SMILES): CC(C)[C@H](NC(=O)[C@H](CCCCN)NC(=O)[C@H](C)NC(=O)[C@@H](NC(=O)[C@@H](NC(=O)[C@H](CCCN=C(N)N)NC(=O)[C@H](CCCN=C(N)N)NC(=O)[C@H](Cc1c[nH]c2ccccc12)NC(=O)[C@H](Cc1c[nH]c2ccccc12)NC(=O)CN)[C@@H](C)O)C(C)C)C(=O)N[C@@H](CCCN=C(N)N)C(=O)N[C@@H](C)C(N)=O [GWWRRTVAKVRA]
MIC [1]: 6.3 µM (≈ 9.35 µg/mL)
MIC [28]: ≥ 50 µM
MIC [29]: 0.8 µM (≈ 1.19 µg/mL)
MIC [30]: 25 µM (≈ 37.1 µg/mL)
MIC [20]: 6.3 µM (≈ 9.35 µg/mL)
MIC [31]: ≥ 50 µM

Structure (SMILES): CC[C@H](C)[C@H](NC(=O)[C@H](CC(C)C)NC(=O)[C@H](CCC(N)=O)NC(=O)[C@H](CO)NC(=O)[C@H](CCCN=C(N)N)NC(=O)[C@@H](N)CO)C(=O)N[C@H](C(=O)N[C@@H](Cc1cnc[nH]1)C(=O)N[C@@H](CCC(N)=O)C(=O)N[C@@H](CCCN=C(N)N)C(=O)N[C@@H](CC(C)C)C(=O)N[C@@H](Cc1ccccc1)C(N)=O)C(C)C [SRSQLIVHQRLF]
MIC [47]: > 270 µM
MIC [48]: ≥ 270 µM
MIC [49]: ≥ 270 µM
MIC [50]: > 270 µM
MIC [51]: ≥ 270 µM

Second part, the molecule after the results:

MIC [1]: 4 µM (≈ 6.54 µg/mL)
MIC [32]: 4 µM (≈ 6.54 µg/mL)
MIC [33]: ≥ 32 µM
MIC [34]: ≥ 32 µM
MIC [35]: 4 µM (≈ 6.54 µg/mL)
MIC [36]: 2 µM (≈ 3.27 µg/mL)
MIC [37]: 8 µM (≈ 13.1 µg/mL)
MIC [38]: ≥ 32 µM
MIC [39]: 4 µM (≈ 6.54 µg/mL)
MIC [40]: 8 µM (≈ 13.1 µg/mL)
MIC [13]: 8 µM (≈ 13.1 µg/mL)
MIC [41]: ≥ 32 µM
Structure (SMILES): CC[C@H](C)[C@H](N)C(=O)N[C@@H](CC(N)=O)C(=O)N[C@@H](CC(C)C)C(=O)N[C@@H](CCCCN)C(=O)N[C@@H](CCCCN)C(=O)N[C@@H](CC(C)C)C(=O)N[C@@H](C)C(=O)N[C@@H](C)C(=O)N[C@@H](CCCN=C(N)N)C(=O)N[C@H](C(=O)N[C@@H](CCCCN)C(=O)N[C@@H](CCCCN)C(=O)N[C@@H](CCCCN)C(=O)N[C@H](C(N)=O)[C@@H](C)CC)[C@@H](C)CC [INLKKLAARIKKKI]

MIC [1]: 50 µM (≈ 86.6 µg/mL)
MIC [42]: ≥ 100 µM
MIC [43]: ≥ 100 µM
MIC [44]: 25 µM (≈ 43.3 µg/mL)
MIC [45]: 25 µM (≈ 43.3 µg/mL)
MIC [20]: > 100 µM
MIC [46]: 25 µM (≈ 43.3 µg/mL)
Structure (SMILES): CC[C@H](C)[C@H](NC(=O)[C@H](Cc1ccc(O)cc1)NC(=O)[C@H](CCC(N)=O)NC(=O)[C@H](CC(C)C)NC(=O)[C@H](C)NC(=O)[C@H](CCCCN)NC(=O)[C@H](CCCCN)NC(=O)[C@H](CCSC)NC(=O)[C@H](CCCCN)NC(=O)[C@@H](N)CCCCN)C(=O)N[C@@H](CCCCN)C(=O)N[C@@H](CC(C)C)C(=O)N[C@@H](CC(C)C)C(=O)N[C@@H](CCCCN)C(N)=O [KKMKKALQYIKLLK]
